Data set [1] in a line: Chemical stability test of solubilized docetaxel by HPLC. It counts as physicochemical. As to conditions: vial of Example 3, solubilizing composition with 15% DMA, 25° C., 60% relative humidity. As for the experimental part: The vial of Example 3 containing a solubilizing composition of 15% DMA was subjected to a chemical stability test described as follows:
Immediately after solubilizing docetaxel and at periods of 2, 4, 6 and 8 hours starting from that moment, a sample is taken from the vial using a disposable syringe (1 ml, Darling) with a disposable hypodermic needle (50×8-21Gx2, Neojet). The volume of the sample was 0.5 ml and each sample was weighed and diluted up to a final volume of 10 ml with the mobile phase to be used in HPLC. Reconstituted material remained in a chamber at 25° C. and 60% room relative humidity during the test time.
Mobile phase: Filtered and deaerated mixture of acetonitrile, Methanol, water (26:32:42 v:v:v). The column used was Beckman stainless steel (Ultrasphere ODS of 4.6 mm×25 cm, 5 μm, part N° 235329). The guard column used was Beckman (Ultrasphere ODS of 4.6 mm×4.5 cm, 5 μm, part N° 243533). The detector used was UV type, Waters 2487 dual and the measure was done at wave length 232 nm. The volume injected was 20 μl, using a Waters 717 plus autosampler, and samples were maintained in the autosampler at 4° C. after preparation until the moment of being injected. Retention time for docetaxel is approximately 25 min and run time is 90 min. Flow rate remained 1.0 ml/min using a Waters 1525 binary pump for HPLC. The software used was Breeze version 3.30. The column temperature was 40° C. A standard for the assessment and determination of related substances was prepared, weighing exactly 20 mg of standard docetaxel in a volumetric flask of 50 ml; it was dissolved with 5 ml ethanol and was diluted up to final volume with mobile phase. A solution of impurity 10-deacethilbaccatine III was prepared in order to detect and quantify it in a chromatogram, weighing 5 mg of 10-deacethilbaccatine III, dissolving with 1 ml ethanol and diluting up to final volume, 10 ml, with mobile phase in a volumetric flask. In the same way, a solution of impurity 7-epi-docetaxel was prepared, weighing 10 mg of docetaxel, 10 ml of NaOH 0.005 N were added. It was left to stand for 2 hours; 2.5 ml of ethanol were added and it was diluted to final volume, 25 ml with mobile phase.

Data set [2] can be described thus: Laboratory solubility tests of docetaxel API versus lyophilized solid composition in tensoactives. The note with it: for solubility in a tensoactive aqueous solution: direct dissolution. The class given is physicochemical.

Each structure is given as a SMILES string.

With `CC(=O)O[C@@]12CO[C@@H]1C[C@H](O)[C@@]1(C)C(=O)[C@H](O)C3=C(C)[C@@H](OC(=O)[C@H](O)[C@@H](NC(=O)OC(C)(C)C)c4ccccc4)C[C@@](O)([C@@H](OC(=O)c4ccccc4)[C@H]21)C3(C)C` [Docetaxel], the “Docetaxel concentration (percentage of area ratio)” value in data set [1] (time 0 hours) is on record as 99.61 percentage of area ratio; in data set [1] (time 2 hours), 99.59 percentage of area ratio; in data set [1] (time 4 hours), 99.57 percentage of area ratio; in data set [1] (time 6 hours), 99.57 percentage of area ratio; in data set [1] (time 8 hours) it was 99.54 percentage of area ratio.

Turning to `CC(=O)O[C@@]12CO[C@@H]1C[C@H](O)[C@@]1(C)C(=O)[C@H](O)C3=C(C)[C@@H](OC(=O)[C@H](O)[C@@H](NC(=O)OC(C)(C)C)c4ccccc4)C[C@@](O)([C@@H](OC(=O)c4ccccc4)[C@H]21)C3(C)C` [anhydrous docetaxel], in data set [2], the “solubility in pure polysorbate 80” value is listed as “very difficultly” and the “solubility in a tensoactive aqueous solution” value is “cannot be dissolved directly”.

Take `CC(=O)O[C@@]12CO[C@@H]1C[C@H](O)[C@@]1(C)C(=O)[C@H](O)C3=C(C)[C@@H](OC(=O)[C@H](O)[C@@H](NC(=O)OC(C)(C)C)c4ccccc4)C[C@@](O)([C@@H](OC(=O)c4ccccc4)[C@H]21)C3(C)C.O.O.O` [trihydrate docetaxel]: in data set [2], the “solubility in pure polysorbate 80” value is “very difficultly” and the “solubility in a tensoactive aqueous solution” value is given as “cannot be dissolved directly”.

For the origin of these results see US20100255104A1, “PHARMACEUTICAL FORMULATION OF TAXANE” (ERIOCHEM S.A., priority 2007, published 2010).
